Data from ChEMBL document CHEMBL1121561, “Synthesis and antineoplastic activity of a novel series of phosphoramide mustard analogues of pyrimidine deoxyribonucleosides” (1980).
Calls of active or inactive are those of the source. No cut-off for these calls is given here.

Key:
[1] = test system: L1210; test: Compound was tested in vitro for its inhibition against replication of L1210 neoplastic cells; type: functional; conditions: Mus musculus, read-out: ID50 (the source's name)
[2] = test system: L1210; test: Compound was tested in vitro for its inhibition against replication of L1210 neoplastic cells; Inactive; type: functional, cell-based; conditions: Mus musculus

Structure (SMILES) | IC50 [1] [µM] | ID50 [2]
Cc1cn(C2CC3OP(=O)(N(CCCl)CCCl)NCC3O2)c(=O)[nH]c1=O (stereo not given) | 12 | 
Cc1cn(C2CC3OP(=O)(N(CCCl)CCCl)N(C)CC3O2)c(=O)[nH]c1=O (stereo not given) | 15 | 
O=c1[nH]c(=O)n(C2CC3OP(=O)(N(CCCl)CCCl)NCC3O2)cc1I (stereo not given) | 14 | 
Cc1cn(C2CC3NP(=O)(N(CCCl)CCCl)NCC3O2)c(=O)[nH]c1=O (stereo not given) |  | inactive
O=P1(N(CCCl)CCCl)NCCCO1 (stereo not given) |  | inactive
